What all share (conditions): peptide immobilized, protein 2 μM, 25° C., TBS pH 7.4, KD = Koff/Kon
Experiment [1] addresses DISC1 C-region (residues 691-836) mutant L807-FS. Briefly: Bio-layer interferometry (BLI) binding of immobilized peptides to L807-FS C-region. The arrangement: species or system human. The protocol: (§1) Bio-layer interferometry (BLI) for identification of peptide leads. Binding of the peptides with the C-region constructs (WT, S713E, S704C and L807-FS) were investigated using an Octet (ForteBio) instrument. Prior to measurements, all peptides were solubilized in phosphate buffered saline (PBS) containing 20 mM Na-phosphate, pH 7.4, and 150 mM NaCl. For coupling of the peptide (ligand), the A2RG sensor chip (Sartorius GmbH) were activated with 1-ethyl-3-(3-dimethylaminopropyl) carbodiimide (EDC)/N hydroxysuccinimide (NHS) (200 mM/50 mM); the peptides were diluted to 2 μM in 10 mM sodium acetate, pH 4.0, and immobilized to the sensor chip, and the flow cell was deactivated with 0.1 M ethanolamine-HCl, pH 8.5. Titrations of the above-mentioned C-region and the constructs were performed at 25° C. with TBS, pH 7.4 as the running buffer using protein concentrations of 2 μM without intermittent regeneration. Data analysis of peptide-protein interaction. In order to assess the binding isotherms of the protein to the immobilized peptides, I derived the binding affinity (KD) by computing the on-rate (Kon) and the off-rate (Koff) by deriving the reciprocals of the exponential fittings of association and dissociation (OriginPro 2020). The binding affinity (KD) was derived by dividing the off-rate (Koff) with the on-rate (Kon).
On the technique in general: Biolayer interferometry detects binding as a change in optical thickness at a sensor tip.

Experiment [2] deals with T1, wild-type (WT) human DISC1 C-region (residues 691-836) (Homo sapiens, UniProt Q9NRI5).
T1 construct: human DISC1 C-region (residues 691-836); His6 (N); made in house; host or cells: E. coli BL21 (DE3) pLysE T1R
T1 sequence (Q9NRI5 691-836): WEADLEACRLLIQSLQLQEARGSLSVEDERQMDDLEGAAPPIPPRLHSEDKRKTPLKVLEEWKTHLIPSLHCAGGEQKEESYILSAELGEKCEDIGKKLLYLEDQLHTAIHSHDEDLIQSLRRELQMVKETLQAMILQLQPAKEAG
Kind of experiment: Bio-layer interferometry (BLI) binding of immobilized peptides to WT C-region. The method, then: Protein expression and purification. The wild-type (WT) human DISC1 C-region (residues 691-836) was expressed alternatively as N-terminal His6—fusion construct, which was expressed as previously described using the E. coli BL21 (DE3) pLysE T1R cells. The culture was grown either in Luria-Bertani (LB) broth and protein expression was induced at an OD600 of 0.6 by the addition of 1 mM isopropyl-β-D-thiogalactopyranoside (IPTG) for 16 h at 18° C. Harvested cells were lysed using an ice-chilled microfluidizer M100P (Microfluidics MPT) at 15, 000 PSI in Tris-buffered saline (TBS) buffer containing 10 mM Tris-HCl pH 7.4, 150 mM NaCl and Complete EDTA-free protease inhibitor cocktail (Roche). The soluble fraction was purified on Co^2+-NTA resin (Qiagen) and was eluted using TBS containing 500 mM imidazole. In the next step, the WT C-region protein was further purified on a HiLoad 16/60 Superdex 200 size exclusion chromatography column (GE Healthcare Bio Sciences).
as §1, with “regeneration.” for “regeneration. Data analysis of peptide-protein interaction. In order to assess the binding isotherms of the protein to the immobilized peptides, I derived the binding affinity (KD) by computing the on-rate (Kon) and the off-rate (Koff) by deriving the reciprocals of the exponential fittings of association and dissociation (OriginPro 2020). The binding affinity (KD) was derived by dividing the off-rate (Koff) with the on-rate (Kon).”
Data analysis of peptide-protein interaction. In order to assess the binding isotherms of the protein to the immobilized peptides, I derived the binding affinity (KD) by computing the on-rate (Kon) and the off-rate (Koff) by deriving the reciprocals of the exponential fittings of association and dissociation (OriginPro 2020).
The binding affinity (KD) was derived by dividing the off-rate (Koff) with the on-rate (Kon).

Experiment [3] deals with T2, DISC1 C-region (residues 691-836) mutant S704C (Homo sapiens, UniProt Q9NRI5, S704C).
T2 construct: DISC1 C-region (residues 691-836) mutant versions S704C, and/or 713E and/or L807-FS
T2 sequence (Q9NRI5 691-836 S704C): T1 sequence (Q9NRI5 691-836) with S14C
Kind of experiment: Bio-layer interferometry (BLI) binding of immobilized peptides to S704C C-region. The method, then:
as §1

The target of experiment [4] is T3, DISC1 C-region (residues 691-836) mutant S713E (Homo sapiens, UniProt Q9NRI5, S713E).
T3 construct: DISC1 C-region (residues 691-836) mutant versions S704C, and/or 713E and/or L807-FS
T3 sequence (Q9NRI5 691-836 S713E): T1 sequence (Q9NRI5 691-836) with S23E
Briefly: Bio-layer interferometry (BLI) binding of immobilized peptides to S713E C-region. The protocol: as §1

Where a chain is given by its changes, count along the chain named. Ends that are not written are not given here.

This is an account of results in patent publication US20260258088A1, “DISC1-BINDING PEPTIDES AND THE USE THEREOF FOR THE TREATMENT AND DIAGNOSIS OF SCHIZOPHRENIA AND OTHER CHRONIC MENTAL DISORDERS” (FORSCHUNGSZENTRUM JUELICH GMBH, priority 2022, published 2026).

One may read the Kd as the equilibrium constant for the complex coming apart. A lower Kd goes with a tighter complex.

As for “TSGVPWWKFQQQVRRT-NH2 [Flo11, TSGVPWWKFQQQVRRT-NH2]”, the Kd stood at 160 nM in experiment [1], 3680 nM in experiment [2], 1060 nM in experiment [3] and 890 nM in experiment [4].
Consider “GIKSLISNKMHTQWNY-NH2 [Flm5, GIKSLISNKMHTQWNY-NH2]”, for which the dissociation constant Kd in experiment [1] is 110 nM; in experiment [2] it was 640 nM; in experiment [3] it was 150 nM; in experiment [4] it was 80 nM.
In the case of “KYTAIHEWYKAHNGGA-NH2 [Flo8, KYTAIHEWYKAHNGGA-NH2]”, the equilibrium dissociation constant (Kd) in experiment [1] was found to be 170 nM; in experiment [2] it was 2620 nM; in experiment [3] it was 1040 nM; in experiment [4] it was 460 nM.
Take “PWYNAPHSHGFWGSGR-NH2 [Flm9, PWYNAPHSHGFWGSGR-NH2]”: the Kd amounted to 390 nM in experiment [1], 3200 nM in experiment [2], 1490 nM in experiment [3] and 1500 nM in experiment [4].
For the substance “QDNPWWHEHKHWKSWP-NH2 [Flo5, QDNPWWHEHKHWKSWP-NH2]”, the dissociation constant (Kd) in experiment [1] was found to be 270 nM; in experiment [2], 250 nM; in experiment [3], 360 nM; in experiment [4], 210 nM.
For “WNHPMNIRSISWHKDS-NH2 [Flm6, WNHPMNIRSISWHKDS-NH2]”, the Kd in experiment [1] was found to be 530 nM; in experiment [2] it was 2010 nM; in experiment [3] it was 2240 nM; in experiment [4] it was 1070 nM.
In the same order, the values of “HKLHHLLKWENQHKVE-NH2 [Flm11, HKLHHLLKWENQHKVE-NH2]” are 540 nM, 1270 nM, 720 nM and 420 nM.
As to “FPHPTLKHREFMRHVS-NH2 [Flo1, FPHPTLKHREFMRHVS-NH2]”, the dissociation constant Kd was 40 nM in experiment [1], 100 nM in experiment [2], 160 nM in experiment [3] and 70 nM in experiment [4].
For “AWQHHELKWKQYQGWR-NH2 [Flm2, AWQHHELKWKQYQGWR-NH2]”, the Kd in experiment [1] was found to be 110 nM; in experiment [2], 640 nM; in experiment [3], 150 nM; in experiment [4], 220 nM.
For “HISMQTYKWSQWAKHQ-NH2 [Flo3, HISMQTYKWSQWAKHQ-NH2]” the same measures were 400 nM, 2620 nM, 270 nM and 420 nM.
With “SNWHPRHFFMSPSSPQ-NH2 [Flo6, SNWHPRHFFMSPSSPQ-NH2]”, the Kd in experiment [1] was 170 nM; in experiment [2], 2360 nM; in experiment [3], 720 nM; in experiment [4], 460 nM.
With “IWAGHIHDWWRRGQGS-NH2 [Flm1, IWAGHIHDWWRRGQGS-NH2]”, the Kd in experiment [1] worked out at 200 nM; in experiment [2] it was 150 nM; in experiment [3], 80 nM; in experiment [4], 80 nM.
